Experimental data taken from paper PMC10466253, “Derivatives of 9-phosphorylated acridine as butyrylcholinesterase inhibitors with antioxidant activity and the ability to inhibit β-amyloid self-aggregation: potential therapeutic agents for Alzheimer’s disease” (Frontiers in Pharmacology, 2023).
Marks after values point to notes of the source that are not given here.

Assays:
[1] = FRAP (ferric reducing antioxidant power) assay; details: Trolox equivalents; 1 h, 37°C, pH 3.6
Experimental: The ferric reducing antioxidant power (FRAP) assay proposed by [Benzie and Strain (1996)]; [Benzie and Strain (1999)] modified to be performed in 96-well microplates as described in detail in [Makhaeva et al. (2020)] was used. 10 μL (0.5 mM) of the tested or reference compounds were mixed with 240 µL of FRAP reagent (2.5 mL of 10 mM TPTZ (2,4,6-tris(2-pyridyl)-s-triazine) solution in 40 mM HCl, 2.5 mL of 20 mM FeCl3 in distilled water and 25 mL of 0.3 M acetate buffer pH 3.6); the absorbance of the mixture was measured spectrophotometrically (λ = 593 nm) with a FLUOStar OPTIMA microplate reader at 600 nm after a 1 h incubation at 37°C against a blank. Trolox was used as a reference compound. The results were expressed as Trolox equivalents (TE)—the ratio of the concentrations of Trolox and the test compound resulting in the same effect on ferric reducing activity.

[2] = ABTS radical cation scavenging activity assay; details: for ABTS•+-scavenging activity, TEAC: Trolox equivalent antioxidant capacity, ratio of slopes compound/Trolox; for IC50: concentration for 50% reduction of ABTS radical cation
Experimental: Radical scavenging activity of the compounds was evaluated using the ABTS radical cation (2,2ʹ-azinobis-(3-ethylbenzothiazoline-6-sulfonic acid), ABTS^•+) decolorization assay ([Re et al., 1999]), with minor modifications described in detail in [Makhaeva et al. (2019a)]. To prepare the solution of ABTS^•+, equal volumes of aqueous solutions of 7 mM ABTS and 2.45 mM potassium persulfate were incubated for 12–16 h at room temperature in the dark. Radical scavenging capacity of the compounds was determined by mixing 10 μL of compound solution in DMSO with 240 μL of ABTS^•+ working solution in ethanol (100 μM final concentration). The reduction in ABTS^•+ absorbance was measured spectrophotometrically at 734 nm using a xMark UV/VIS microplate spectrophotometer (Bio-Rad, Hercules, CA, United States) for 1 h with an interval of 10 min compared to a standard synthetic antioxidant Trolox (6-hydroxy-2,5,7,8-tetramethylchroman-2-carboxylic acid). Ascorbic acid was used as a positive control.
The antioxidant activity of the compounds was reported as Trolox equivalent antioxidant capacity (TEAC values) as the ratio of the slopes of the concentration−response curves, test compound/Trolox. The IC50 values for the test compounds were also determined.

Porcine liver CES = experiment: In vitro inhibition of CES activity (spectrophotometric, 4-NPA substrate); assay type: biochemical; details: compound concentration 20 µM; mean ± SEM, n = 3
Experimental: (§1) Enzymes, substrates, and reference compounds were from Sigma-Aldrich (St. Louis, MO, United States). […] Experimental conditions: K,Na-phosphate buffer (100 mM), 25°С, pH 7.5 for AChE and BChE and pH 8.0 for CES assay. Measurements were carried out on a BioRad Benchmark Plus microplate spectrophotometer (Hercules, CA, United States).
(§2) Test compounds were dissolved in DMSO; final concentration of solvent in the incubation mixture was 2% (v/v).

Equine serum BChE = biological target: T1, Equine serum BChE (Equus caballus, UniProt P81908); experiment: In vitro inhibition of BChE activity (spectrophotometric, BTCh iodide substrate); assay type: biochemical; details: for Equine serum BChE, (%) inhibition: compound concentration 20 µM, mean ± SEM, n = 3; for inhibition at 20 µM: read-out: Equine serum BChE, (%) inhibition
T1 construct: Equine serum BChE, (%); purchased Sigma-Aldrich; host or cells: equine serum
Experimental: as §1, §2

Human erythrocyte AChE = biological target: T2, Human erythrocyte AChE (Homo sapiens, UniProt P22303); experiment: In vitro inhibition of AChE activity (spectrophotometric, ATCh iodide substrate); assay type: biochemical; details: for Human erythrocyte AChE, (%) inhibition: compound concentration 20 µM, mean ± SEM, n = 3; for inhibition at 20 µM: read-out: Human erythrocyte AChE, (%) inhibition
T2 construct: Human erythrocyte AChE, (%); purchased Sigma-Aldrich; host or cells: human erythrocytes
Experimental: as §1, §2

β-amyloid (1-42) (Aβ42) = biological target: T3, β-amyloid (1-42) (Aβ42) (Homo sapiens, UniProt P05067); experiment: Inhibition of Aβ42 self-aggregation, thioflavin T fluorescence method; assay type: biochemical; details: Aβ42 50 µM, compound 100 µM, 24 h, 37°C; mean ± SEM, n = 3
T3 construct: purchased AnaSpec Inc
Experimental: Lyophilized HFIP-pretreated Aβ42 (AnaSpec Inc., 0.5 mg) was dissolved in DMSO to obtain a stable 500 μM solution. […] Myricetin and Propidium iodide in the same concentration were used as references.
Therefore, the decrease in ThT fluorescence in the presence of the studied compound correlates with its activity to inhibit the formation of amyloid aggregates.

BChE = biological target: T4, BChE (Equus caballus, UniProt P81908); experiment: Kinetic studies of BChE inhibition (Lineweaver-Burk); assay type: biochemical, equine
T4 construct: Equine serum BChE, (%); purchased Sigma-Aldrich; host or cells: equine serum
Experimental: Mechanism of BChE inhibition was assessed by a detailed analysis of enzyme kinetics with three increasing concentrations of inhibitor and six substrate concentrations as described in detail in [Makhaeva et al. (2017)].
Lineweaver-Burk plots-double reciprocal representations of Michaelis-Menten parameters-were used to assess the type of inhibition.

T2 sequence (P22303 32-617 isoform P22303-2 limits assumed): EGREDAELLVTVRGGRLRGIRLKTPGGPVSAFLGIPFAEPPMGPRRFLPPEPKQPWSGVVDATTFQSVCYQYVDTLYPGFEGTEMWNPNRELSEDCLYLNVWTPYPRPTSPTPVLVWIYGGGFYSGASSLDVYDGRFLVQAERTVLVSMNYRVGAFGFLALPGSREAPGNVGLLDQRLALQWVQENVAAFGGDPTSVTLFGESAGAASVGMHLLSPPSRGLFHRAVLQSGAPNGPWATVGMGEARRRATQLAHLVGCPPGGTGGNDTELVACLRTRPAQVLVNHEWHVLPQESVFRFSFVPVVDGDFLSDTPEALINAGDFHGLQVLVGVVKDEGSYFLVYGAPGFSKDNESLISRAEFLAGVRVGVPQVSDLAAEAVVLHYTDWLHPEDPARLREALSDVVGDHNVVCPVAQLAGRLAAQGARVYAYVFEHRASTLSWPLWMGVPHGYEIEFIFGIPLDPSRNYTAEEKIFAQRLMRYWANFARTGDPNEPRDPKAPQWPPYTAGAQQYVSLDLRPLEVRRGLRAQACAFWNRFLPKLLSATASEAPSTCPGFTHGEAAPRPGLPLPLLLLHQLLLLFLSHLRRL
T3 sequence (P05067 672-713 limits assumed): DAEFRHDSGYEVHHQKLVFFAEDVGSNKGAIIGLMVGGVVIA
T1 sequence (P81908 whole entry): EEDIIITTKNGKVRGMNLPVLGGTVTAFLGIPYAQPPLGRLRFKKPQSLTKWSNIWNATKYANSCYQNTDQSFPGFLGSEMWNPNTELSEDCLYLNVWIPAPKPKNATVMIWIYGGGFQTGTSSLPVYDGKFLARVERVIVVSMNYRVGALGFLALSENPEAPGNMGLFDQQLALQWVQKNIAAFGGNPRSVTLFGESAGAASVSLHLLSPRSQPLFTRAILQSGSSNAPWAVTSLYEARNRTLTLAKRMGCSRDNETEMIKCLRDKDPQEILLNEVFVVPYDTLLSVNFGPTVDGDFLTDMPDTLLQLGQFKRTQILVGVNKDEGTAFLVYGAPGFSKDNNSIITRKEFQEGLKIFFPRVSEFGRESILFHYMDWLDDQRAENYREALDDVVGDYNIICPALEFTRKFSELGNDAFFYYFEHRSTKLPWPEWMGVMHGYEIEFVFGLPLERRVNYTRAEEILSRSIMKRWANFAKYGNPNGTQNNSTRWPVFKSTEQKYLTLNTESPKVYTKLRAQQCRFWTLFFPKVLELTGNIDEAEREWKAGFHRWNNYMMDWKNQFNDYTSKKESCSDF
T4 sequence (P81908 whole entry): as above

Structure (SMILES) | FRAP Fe3+-reducing activity, TE [1] | ABTS•+-scavenging activity, TEAC [2] | IC50 [2] | Porcine liver CES, (%) inhibition (Porcine liver CES) | Inhibition of Aβ42 self-aggregation, (%) (β-amyloid (1-42) (Aβ42)) | inhibition at 20 µM (Equine serum BChE) | inhibition at 20 µM (Human erythrocyte AChE) | inhibition at 100 µM (β-amyloid (1-42) (Aβ42)) | IC50 (Equine serum BChE) | other results
O=C1O[C@H]([C@@H](O)CO)C(O)=C1O [Ascorbic acid, reference compound] | 1.23 ± 0.11 TE | 0.97 ± 0.04 | 22.4 ± 2.2 µM |  |  |  |  |  |  | 
O=[N+]([O-])c1ccc(OP(=O)(O)Oc2ccc([N+](=O)[O-])cc2)cc1 [BNPP, reference compound] |  |  |  | 99.1 ± 0.93 ^e % |  |  |  |  |  | 
COP(=O)(OC)C1c2ccccc2Nc2ccccc21 [Compound 1a] | 1.60 ± 0.01 TE | 0.99 ± 0.04 | 21.3 ± 1.4 µM | n.а | 4.9 ± 0.4% |  |  |  |  | Equine serum BChE, (%) inhibition (Equine serum BChE): 21.3 ± 1.7%; Human erythrocyte AChE, (%) inhibition (Human erythrocyte AChE): 5.3 ± 1.3%
CCOP(=O)(OCC)C1c2ccccc2Nc2ccccc21 [Compound 1b] | 1.15 ± 0.01 TE | 0.97 ± 0.03 | 20.8 ± 1.3 µM | n.а |  | 16.9 ± 1.5% | 4.4 ± 1.1% | 8.1 ± 0.8% |  | 
O=P(Oc1ccccc1)(Oc1ccccc1)C1c2ccccc2Nc2ccccc21 [Compound 1c] | 1.13 ± 0.02 TE | 1.13 ± 0.05 | 17.8 ± 1.1 µM | 21.6 ± 1.7% |  |  | 6.3 ± 0.9% | 19.8 ± 1.5% | 48 ± 3.1 µM | 
O=P(OCc1ccccc1)(OCc1ccccc1)C1c2ccccc2Nc2ccccc21 [Compound 1d, 9-bis(benzyloxy)phosphoryl-9,10-dihydroacridine] | 0.97 ± 0.06 TE | 0.97 ± 0.04 | 20.8 ± 1.3 µM | 18.7 ± 1.4% |  |  | 7.6 ± 1.2% | 58.9 ± 4.7% | 2.9 ± 0.23 µM | type of BChE inhibition (BChE; Lineweaver-Burk analysis): mixed type of inhibition; Ki (BChE; steady state inhibition, read-out: competitive component (Ki) of BChE inhibition): 2.22 ± 0.19 µM
O=P(CCc1ccccc1)(CCc1ccccc1)C1c2ccccc2Nc2ccccc21 [Compound 1e] | 1.10 ± 0.01 TE | 0.9 ± 0.03 | 21.8 ± 0.9 µM | 22.2 ± 1.7% |  |  | 8.8 ± 2% | 46.9 ± 4.2% | 3.22 ± 0.25 µM | time to reach the maximum degree of ABTS•+ radical binding [2]: 30 min
O=P(CCc1ccc(Cl)cc1)(CCc1ccc(Cl)cc1)C1c2ccccc2Nc2ccccc21 [Compound 1f] | 0.81 ± 0.02 TE | 0.80 ± 0.03 | 22.6 ± 0.7 µM |  |  |  | 6.4 ± 1% | 34.1 ± 2.7% | 21.7 ± 1.7 µM | time to reach the maximum degree of ABTS•+ radical binding [2]: 30 min
COP(=O)(OC)c1c2ccccc2nc2ccccc12 [Compound 2a] | 0.08 ± 0.02 TE |  |  | 4.3 ± 1.1% | 4.9 ± 0.4% |  |  |  |  | Equine serum BChE, (%) inhibition (Equine serum BChE): 9.0 ± 1.4%; Human erythrocyte AChE, (%) inhibition (Human erythrocyte AChE): 9.1 ± 1.2%
CCOP(=O)(OCC)c1c2ccccc2nc2ccccc12 [Compound 2b] | 0.07 ± 0.01 TE |  |  | 10.5 ± 1.3% | n.а | 10.8 ± 1.5% | 10.4 ± 1.2% |  |  | 
O=P(Oc1ccccc1)(Oc1ccccc1)c1c2ccccc2nc2ccccc12 [Compound 2c] |  |  |  | 27.6 ± 2.2% |  | 32.7 ± 2.6% | 12.4 ± 1.4% | 3.6 ± 0.3% |  | 
O=P(OCc1ccccc1)(OCc1ccccc1)c1c2ccccc2nc2ccccc12 [Compound 2d] |  |  |  | 20.4 ± 1.8% | n.а |  | 10.8 ± 1.5% |  | 6.9 ± 0.55 µM | times less effective BChE inhibitor than the corresponding dihydroacridine (1d) (Equine serum BChE; ratio of BChE IC50 values): 2.4
O=P(CCc1ccccc1)(CCc1ccccc1)c1c2ccccc2nc2ccccc12 [Compound 2e] |  |  |  | 13.5 ± 1.7% | n.а | 25.7 ± 2% | 10.4 ± 1.3% |  |  | 
O=P(CCc1ccc(Cl)cc1)(CCc1ccc(Cl)cc1)c1c2ccccc2nc2ccccc12 [Compound 2f] |  |  |  | 18.4 ± 1.4% |  | 20.4 ± 1.6% | 15.2 ± 1.3% | 11.2 ± 0.8% |  | 
CC[N+](C)(CC)CCC[n+]1c(-c2ccccc2)c2cc(N)ccc2c2ccc(N)cc21.[I-].[I-] [Propidium iodide, reference compound] |  |  |  |  | 90.7 ± 7.1% |  |  |  |  | 
Cc1c(C)c2c(c(C)c1O)CCC(C)(C(=O)O)O2 (centres unmarked) [Trolox, 6-hydroxy-2,5,7,8-tetramethylchroman-2-carboxylic acid, reference compound] | 1.0 TE | 1.0 | 20.1 ± 0.7 µM |  |  |  |  |  |  | 
